This is an account of results in US10081624B2, “Heterocyclic compound” (Takeda Pharmaceutical Company Limited, priority 2014, dated 2018).

Structures are written as SMILES.

Experiment [1] deals with T1, HDAC1 enzyme (Homo sapiens, UniProt Q13547).
T1 construct: prepared by transducing full length HDAC1 and HDAC6 genes into Sf-9 insect cells; GST; purchased SignalChem; host or cells: Sf-9 insect cells
The experiment in a line: HDAC1 enzyme inhibitory assay (HDAC-Glo I/II Assay kit). Format: biochemical. Conditions: 1 μM test compound; for inhibition at 1 µM: read-out: HDAC1 inhibitory rate (%) (1 μM). A digest of the protocol: (§1)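 Luminescence read-out: 20 min after adding HDAC-Glo substrate-developer at room temperature. Before that, compound and Sf-9-expressed, GST-purified full-length HDAC1 or HDAC6 sat together 60 min in pH 7.5 Tris buffer. Inhibition is relative to no-enzyme wells taken as 100%.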

Experiment [2] addresses T2, HDAC6 enzyme (Homo sapiens, UniProt Q9UBN7).
T2 construct: prepared by transducing full length HDAC1 and HDAC6 genes into Sf-9 insect cells; GST; purchased SignalChem; host or cells: Sf-9 insect cells
T2 sequence (Q9UBN7 1-1215): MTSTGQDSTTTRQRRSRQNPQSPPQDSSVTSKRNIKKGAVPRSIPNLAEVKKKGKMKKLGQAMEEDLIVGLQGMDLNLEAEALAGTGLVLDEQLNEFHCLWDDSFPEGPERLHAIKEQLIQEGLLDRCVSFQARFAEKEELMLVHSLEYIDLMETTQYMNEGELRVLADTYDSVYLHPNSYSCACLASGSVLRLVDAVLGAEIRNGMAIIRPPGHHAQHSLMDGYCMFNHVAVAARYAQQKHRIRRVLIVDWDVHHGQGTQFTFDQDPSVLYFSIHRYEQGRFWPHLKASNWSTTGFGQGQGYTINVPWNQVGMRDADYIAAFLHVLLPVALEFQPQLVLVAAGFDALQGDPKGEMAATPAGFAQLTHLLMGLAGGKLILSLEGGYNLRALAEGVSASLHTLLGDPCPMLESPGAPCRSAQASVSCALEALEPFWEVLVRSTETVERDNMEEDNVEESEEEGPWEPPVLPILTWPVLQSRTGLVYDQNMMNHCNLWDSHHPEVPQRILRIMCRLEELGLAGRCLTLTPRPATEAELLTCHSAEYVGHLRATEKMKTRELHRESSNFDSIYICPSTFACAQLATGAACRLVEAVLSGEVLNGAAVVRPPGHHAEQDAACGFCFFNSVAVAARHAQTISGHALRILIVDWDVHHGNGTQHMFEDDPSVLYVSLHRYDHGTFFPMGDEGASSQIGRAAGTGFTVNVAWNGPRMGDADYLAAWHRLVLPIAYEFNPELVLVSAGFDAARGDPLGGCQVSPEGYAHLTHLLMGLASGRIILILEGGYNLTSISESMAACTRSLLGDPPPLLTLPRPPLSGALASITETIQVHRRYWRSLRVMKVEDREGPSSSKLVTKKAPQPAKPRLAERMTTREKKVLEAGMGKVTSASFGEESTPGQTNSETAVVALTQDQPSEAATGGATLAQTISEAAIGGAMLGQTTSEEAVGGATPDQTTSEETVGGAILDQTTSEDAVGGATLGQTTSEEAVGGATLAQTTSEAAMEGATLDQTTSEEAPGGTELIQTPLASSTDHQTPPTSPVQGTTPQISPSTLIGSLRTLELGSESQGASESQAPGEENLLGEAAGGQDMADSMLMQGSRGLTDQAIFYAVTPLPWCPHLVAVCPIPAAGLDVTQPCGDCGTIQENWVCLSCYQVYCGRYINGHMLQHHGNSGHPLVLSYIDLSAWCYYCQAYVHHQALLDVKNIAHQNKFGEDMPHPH
Nature of the experiment: HDAC6 enzyme inhibitory assay (HDAC-Glo I/II Assay kit). The format is biochemical. The conditions noted are these: 1 μM test compound; for inhibition at 1 µM: read-out: HDAC6 inhibitory rate (%) (1 μM). A digest of the protocol:
as §1

T1 sequence (Q13547 whole entry): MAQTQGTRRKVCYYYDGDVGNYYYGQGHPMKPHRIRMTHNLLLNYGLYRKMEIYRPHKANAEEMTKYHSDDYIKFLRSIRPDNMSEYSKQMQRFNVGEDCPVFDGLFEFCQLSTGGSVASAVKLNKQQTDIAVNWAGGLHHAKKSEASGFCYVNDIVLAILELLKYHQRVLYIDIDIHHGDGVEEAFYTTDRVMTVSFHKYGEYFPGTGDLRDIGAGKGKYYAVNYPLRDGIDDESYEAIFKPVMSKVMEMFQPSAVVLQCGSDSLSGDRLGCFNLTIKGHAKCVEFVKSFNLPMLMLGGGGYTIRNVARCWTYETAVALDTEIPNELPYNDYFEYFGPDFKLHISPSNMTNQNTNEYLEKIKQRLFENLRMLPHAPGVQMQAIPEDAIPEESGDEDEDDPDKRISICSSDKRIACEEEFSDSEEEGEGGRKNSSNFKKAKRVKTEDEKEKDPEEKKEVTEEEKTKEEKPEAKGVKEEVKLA

Consider `O=C(NCC1COCCN1C(=O)c1cccc(-c2ccccc2)c1)c1ccc(-c2noc(C(F)(F)F)n2)cc1` (stereo not shown) [Example 31, N-((4-(biphenyl-3-ylcarbonyl)morpholin-3-yl)methyl)-4-(5-(trifluoromethyl)-1,2,4-oxadiazol-3-yl)benzamide], for which the results for the inhibition at 1 µM in experiment [1] and in experiment [2] were 28% and 96%, respectively.

As to `O=C(NCC1COCCN1C(=O)c1ccccc1-c1ccccc1)c1ccc(-c2noc(C(F)(F)F)n2)cc1` (stereo not shown) [Example 32, N-((4-(biphenyl-2-ylcarbonyl)morpholin-3-yl)methyl)-4-(5-(trifluoromethyl)-1,2,4-oxadiazol-3-yl)benzamide], the results for the inhibition at 1 µM in experiment [1] and in experiment [2] were 23% and 96%, respectively.

For `Cn1nc2ccccc2c1C(=O)N1CCOCC1CNC(=O)c1ccc(-c2noc(C(F)(F)F)n2)cc1` (stereo not shown) [Example 33, N-((4-((2-methyl-2H-indazol-3-yl)carbonyl)morpholin-3-yl)methyl)-4-(5-(trifluoromethyl)-1,2,4-oxadiazol-3-yl)benzamide], the inhibition at 1 µM in experiment [1] is 47%; in experiment [2] it was 99%.

On to `O=C(NCC1COCCN1C(=O)c1ccnc(C2CC2)c1)c1ccc(-c2noc(C(F)(F)F)n2)cc1` (stereo not shown) [Example 34, N-((4-(2-cyclopropylisonicotinoyl)morpholin-3-yl)methyl)-4-(5-(trifluoromethyl)-1,2,4-oxadiazol-3-yl)benzamide], for which the inhibition at 1 µM turned out to be 18% in experiment [1] and 98% in experiment [2].

In the case of `O=C(NCC1COCCN1C(=O)C1CCc2ccccc2O1)c1ccc(-c2noc(C(F)(F)F)n2)cc1` (stereo not shown) [Example 35, N-((4-(3,4-dihydro-2H-chromen-2-ylcarbonyl)morpholin-3-yl)methyl)-4-(5-(trifluoromethyl)-1,2,4-oxadiazol-3-yl)benzamide], the inhibition at 1 µM in experiment [1] came to 30%; in experiment [2], 92%.

On to `O=C(NC[C@H]1COCCN1C(=O)c1ccccc1)c1ccc(-c2noc(C(F)(F)F)n2)cc1` [Example 36, N-(((3S)-4-benzoylmorpholin-3-yl)methyl)-4-(5-(trifluoromethyl)-1,2,4-oxadiazol-3-yl)benzamide], for which the “HDAC1 inhibitory rate (%) (1 μM)” value in experiment [1] is recorded as 21%. Moreover, the “HDAC6 inhibitory rate (%) (1 μM)” value in experiment [2] is given as 105%.

Consider `O=C(NC[C@H]1COCCN1C(=O)c1cc(Cl)cc(Cl)c1)c1ccc(-c2noc(C(F)(F)F)n2)cc1` [Example 37, N-(((3S)-4-(3,5-dichlorobenzoyl)morpholin-3-yl)methyl)-4-(5-(trifluoromethyl)-1,2,4-oxadiazol-3-yl)benzamide], for which the “HDAC1 inhibitory rate (%) (1 μM)” value in experiment [1] (1 µM) was determined as 27%. The “HDAC6 inhibitory rate (%) (1 μM)” value in experiment [2] is recorded as 98%.

As to `Cn1nccc1C(=O)N1CCOC[C@@H]1CNC(=O)c1ccc(-c2noc(C(F)(F)F)n2)cc1` [Example 38, N-(((3S)-4-((1-methyl-1H-pyrazol-5-yl)carbonyl)morpholin-3-yl)methyl)-4-(5-(trifluoromethyl)-1,2,4-oxadiazol-3-yl)benzamide], the figures for the inhibition at 1 µM in experiment [1] and in experiment [2] were 25% and 100%, respectively.

As for `O=C(NC[C@H]1COCCN1C(=O)c1cc(F)cc(F)c1)c1ccc(-c2noc(C(F)(F)F)n2)cc1` [Example 39, N-(((3S)-4-(3,5-difluorobenzoyl)morpholin-3-yl)methyl)-4-(5-(trifluoromethyl)-1,2,4-oxadiazol-3-yl)benzamide], the inhibition at 1 µM in experiment [1] came out at 18%; in experiment [2], 100%.

For the compound `N#Cc1cc(F)cc(C(=O)N2CCOC[C@@H]2CNC(=O)c2ccc(-c3noc(C(F)(F)F)n3)cc2)c1` [Example 40, N-(((3S)-4-(3-cyano-5-fluorobenzoyl)morpholin-3-yl)methyl)-4-(5-(trifluoromethyl)-1,2,4-oxadiazol-3-yl)benzamide], the inhibition at 1 µM in experiment [1] is 17%; in experiment [2], 99%.

`O=C(NC[C@H]1COCCN1C(=O)c1cccc(F)c1)c1ccc(-c2noc(C(F)(F)F)n2)cc1` [Example 41, N-(((3S)-4-(3-fluorobenzoyl)morpholin-3-yl)methyl)-4-(5-(trifluoromethyl)-1,2,4-oxadiazol-3-yl)benzamide]: the “HDAC1 inhibitory rate (%) (1 μM)” value in experiment [1] (1 µM) is 65%. Moreover, the “HDAC6 inhibitory rate (%) (1 μM)” value in experiment [2] is reported as 98%.

In the case of `COc1cccc(C(=O)N2CCOC[C@@H]2CNC(=O)c2ccc(-c3noc(C(F)(F)F)n3)cc2)c1` [Example 42, N-(((3S)-4-(3-methoxybenzoyl)morpholin-3-yl)methyl)-4-(5-(trifluoromethyl)-1,2,4-oxadiazol-3-yl)benzamide], the inhibition at 1 µM in experiment [1] came to 16%. The “HDAC6 inhibitory rate (%) (1 μM)” value in experiment [2] came out at 101%.

With `N#Cc1ccccc1C(=O)N1CCOC[C@@H]1CNC(=O)c1ccc(-c2noc(C(F)(F)F)n2)cc1` [Example 43, N-(((3S)-4-(2-cyanobenzoyl)morpholin-3-yl)methyl)-4-(5-(trifluoromethyl)-1,2,4-oxadiazol-3-yl)benzamide], the inhibition at 1 µM in experiment [1] was 14%. Moreover, the “HDAC6 inhibitory rate (%) (1 μM)” value in experiment [2] was 101%.

With `N#Cc1cccc(C(=O)N2CCOC[C@@H]2CNC(=O)c2ccc(-c3noc(C(F)(F)F)n3)cc2)c1` [Example 44, N-(((3S)-4-(3-cyanobenzoyl)morpholin-3-yl)methyl)-4-(5-(trifluoromethyl)-1,2,4-oxadiazol-3-yl)benzamide], in experiment [1], the inhibition at 1 µM was 16%. In experiment [2], the “HDAC6 inhibitory rate (%) (1 μM)” value stood at 99%.

Take `N#Cc1ccc(C(=O)N2CCOC[C@@H]2CNC(=O)c2ccc(-c3noc(C(F)(F)F)n3)cc2)cc1` [Example 45, N-(((3S)-4-(4-cyanobenzoyl)morpholin-3-yl)methyl)-4-(5-(trifluoromethyl)-1,2,4-oxadiazol-3-yl)benzamide]: the inhibition at 1 µM in experiment [1] was 25%. For the same compound, in experiment [2], the “HDAC6 inhibitory rate (%) (1 μM)” value is given as 99%.

For the compound `O=C(NC[C@H]1COCCN1C(=O)c1ccccc1N1CCOCC1)c1ccc(-c2noc(C(F)(F)F)n2)cc1` [Example 46, N-(((3S)-4-(2-(morpholin-4-yl)benzoyl)morpholin-3-yl)methyl)-4-(5-(trifluoromethyl)-1,2,4-oxadiazol-3-yl)benzamide], the “HDAC1 inhibitory rate (%) (1 μM)” value in experiment [1] (1 µM) came out at 12%. Moreover, in experiment [2], the “HDAC6 inhibitory rate (%) (1 μM)” value came to 95%.

As to `O=C(NC[C@H]1COCCN1C(=O)c1cc(F)c(F)c(F)c1)c1ccc(-c2noc(C(F)(F)F)n2)cc1` [Example 47, N-(((3S)-4-(3,4,5-trifluorobenzoyl)morpholin-3-yl)methyl)-4-(5-(trifluoromethyl)-1,2,4-oxadiazol-3-yl)benzamide], the “HDAC1 inhibitory rate (%) (1 μM)” value in experiment [1] is reported as 11%. Besides, the “HDAC6 inhibitory rate (%) (1 μM)” value in experiment [2] worked out at 102%.

`O=C(NC[C@H]1COCCN1C(=O)c1ccncc1)c1ccc(-c2noc(C(F)(F)F)n2)cc1` [Example 48, N-(((3S)-4-isonicotinoylmorpholin-3-yl)methyl)-4-(5-(trifluoromethyl)-1,2,4-oxadiazol-3-yl)benzamide]: the inhibition at 1 µM in experiment [1] amounted to 16%. The “HDAC6 inhibitory rate (%) (1 μM)” value in experiment [2] stood at 98%.

With `Cc1cc(C(=O)N2CCOC[C@@H]2CNC(=O)c2ccc(-c3noc(C(F)(F)F)n3)cc2)ccn1` [Example 49, N-(((3S)-4-(2-methylisonicotinoyl)morpholin-3-yl)methyl)-4-(5-(trifluoromethyl)-1,2,4-oxadiazol-3-yl)benzamide], in experiment [1], the inhibition at 1 µM turned out to be 13%. For the same compound, the “HDAC6 inhibitory rate (%) (1 μM)” value in experiment [2] is listed as 98%.

With `O=C(NC[C@H]1COCCN1C(=O)c1ccc(OCC(F)(F)F)nc1)c1ccc(-c2noc(C(F)(F)F)n2)cc1` [Example 51, N-(((3S)-4-((6-(2,2,2-trifluoroethoxy)pyridin-3-yl)carbonyl)morpholin-3-yl)methyl)-4-(5-(trifluoromethyl)-1,2,4-oxadiazol-3-yl)benzamide], the inhibition at 1 µM in experiment [1] amounted to 15%; in experiment [2] it was 99%.
